Assay [1] addresses T1, 6xHis-CnTps1 (Cryptococcus neoformans var. grubii, UniProt J9VJZ1). Description: Glo-melt thermal shift assay. It counts as binding. As to conditions: 1 µM protein, 2 mM 4456dh (Fig 2 legend), incubated overnight at 4°C. How it is done: (§1) Fig 2 4456dh binds Tps1 and inhibits Tps1 activity. (A) Structure of 4456dh. (B and C) Glo-melt thermal shift assays reveal 4456dh destabilizes 6xHis-CaTps1 (B) and 6xHis-CnTps1 (C). The first derivative of the raw data was used to determine the melting temperature of 1 µM 6xHis-CaTps1 (B) and 1 µM 6xHis-CnTps1 (C) treated without (black) or with 2 mM 4456dh (red). […] The resulting dose-response curves were fitted to a one-site binding model to extract Kd values; the SD was calculated using the Kd values from each independent experiment (n = 3). (F) Tps1 enzyme activity assay with 5 µM 6xHis-CaTps1 (F) and 6xHis-CnTps1 (G) ±1 mM 4456dh. Error bars represent SE. Comparison to control, untreated 6xHis-CaTps1, was performed using Student’s t-test; **P < 0.01 and ***P < 0.001.
(§2) Thermal shift assays were completed to determine if 4456dh binds Tps1. […]
(§3) 82 determined by SDS-PAGE analysis, were pooled and concentrated to 1 mg/mL for downstream […]
(§4) 93 The data were acquired with MO.Control 1.5.3 (NanoTemper Technologies GmbH). Recorded
(§5) 94 data were analyzed with MO.Affinity Analysis 2.2.7 (NanoTemper Technologies GmbH). […]
(§6) 100 2X Glo-melt dye. Thermal denaturation was measured using an RT-PCR thermocycler (BioRad) […]
(§7) 102 determined by identifying the inflection point of the derivative data. […]
(§8) 104 The catalytic activity of C. albicans Tps1 and C. neoformans Tps1 was measured via a continuous […]

Assay [2] has as its target T2, 6xHis-CaTps1 (Candida albicans, UniProt Q92410).
T2 construct: Briefly, the full-length; thrombin cleavage site (pET-28a linker) (N); made in house; host or cells: E. coli BL21(DE3)pLysS
T2 sequence (Q92410 1-478): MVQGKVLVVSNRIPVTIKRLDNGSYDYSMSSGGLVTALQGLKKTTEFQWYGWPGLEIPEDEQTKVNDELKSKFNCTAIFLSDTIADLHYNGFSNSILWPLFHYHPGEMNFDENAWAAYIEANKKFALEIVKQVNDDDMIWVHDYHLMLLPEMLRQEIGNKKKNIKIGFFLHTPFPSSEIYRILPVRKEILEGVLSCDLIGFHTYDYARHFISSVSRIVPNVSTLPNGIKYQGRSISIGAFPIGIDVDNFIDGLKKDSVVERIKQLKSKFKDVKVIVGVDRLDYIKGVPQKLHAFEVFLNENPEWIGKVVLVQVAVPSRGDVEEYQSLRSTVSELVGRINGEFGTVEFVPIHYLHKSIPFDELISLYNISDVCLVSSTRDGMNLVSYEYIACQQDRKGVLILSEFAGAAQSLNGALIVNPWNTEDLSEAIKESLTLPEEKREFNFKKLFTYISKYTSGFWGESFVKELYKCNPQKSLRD
Description: Glo-melt thermal shift assay. It counts as binding. The settings on record: 1 µM protein, 2 mM 4456dh (Fig 2 legend), incubated overnight at 4°C. How it is done:
as §1, §2, §3, §4, §5, §6, §7, §8

Assay [3] has as its target T1, 6xHis-CnTps1. Description: Microscale thermophoresis (MST). The settings on record: label-free MST, one-site binding model, n = 3, SD. How it is done:
as §1, with “Comparison to control, untreated 6xHis-CaTps1, was performed using Student’s t-test; **P < 0.01 and ***P < 0.001.” left out
(§9) Given the intrinsic fluorescence of CaTps1 and CnTps1, we were able to detect binding without the use of additional fluorophores. […]
as §3, §4, §5, §6, §7, §8
(§10) 111 reaction rate was recorded using a plate reader (Tecan). […]

In assay [4] the target is T2, 6xHis-CaTps1. Description: Microscale thermophoresis (MST). The settings on record: label-free MST, one-site binding model, n = 3, SD. How it is done: as §1, with “Comparison to control, untreated 6xHis-CaTps1, was performed using Student’s t-test; **P < 0.01 and ***P < 0.001.” left out
as §9, §3, §4, §5, §6, §7, §8, §10
On the technique in general: MST reads how a fluorescent partner responds to local heating, with and without ligand.

Data on 1 compound can be found in article PMC12505902, “Inhibitors of trehalose-6-phosphate synthase activity in fungal pathogens compromise thermal tolerance pathways” (mBio, 2025).

T1 sequence (J9VJZ1 entry or part of it): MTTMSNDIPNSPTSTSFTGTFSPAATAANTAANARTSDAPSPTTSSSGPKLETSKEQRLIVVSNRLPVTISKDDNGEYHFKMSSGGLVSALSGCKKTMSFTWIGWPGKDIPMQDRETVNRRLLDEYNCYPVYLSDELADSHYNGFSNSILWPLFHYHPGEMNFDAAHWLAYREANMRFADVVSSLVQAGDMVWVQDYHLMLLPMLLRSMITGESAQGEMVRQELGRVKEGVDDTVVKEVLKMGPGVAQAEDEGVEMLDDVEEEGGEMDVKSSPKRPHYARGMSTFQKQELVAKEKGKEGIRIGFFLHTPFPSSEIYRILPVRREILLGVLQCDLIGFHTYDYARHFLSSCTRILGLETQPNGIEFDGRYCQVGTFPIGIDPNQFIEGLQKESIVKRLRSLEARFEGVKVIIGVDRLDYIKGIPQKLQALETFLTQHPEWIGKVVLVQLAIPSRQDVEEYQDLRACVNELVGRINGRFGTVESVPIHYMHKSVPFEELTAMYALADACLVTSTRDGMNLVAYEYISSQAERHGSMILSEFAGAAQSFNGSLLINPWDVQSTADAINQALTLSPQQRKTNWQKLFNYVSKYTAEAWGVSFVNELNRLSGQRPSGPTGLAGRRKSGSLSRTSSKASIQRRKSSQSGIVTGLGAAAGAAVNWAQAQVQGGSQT

In the case of `Cn1cc(-c2csc(NC(=O)Cc3ccccn3)n2)cn1` [Compound 4456dh], the “effect on melting temperature” value on 6xHis-CnTps1 [1] and at 6xHis-CaTps1 [2] was “decreased the melting temperature” each time. Also, the Kd (commonly the concentration at which binding is half-saturated) at 6xHis-CnTps1 [3] was 33.4 µM; on 6xHis-CaTps1 [4], 7.1 µM.
